Assay results: patent US6890950B2, “Lapachone delivery systems, compositions and uses related thereto” (priority 2002, dated 2005)
Values joined by “and” are separate entries in the source; they are usually repeats but may differ in a detail not shown here. Equal entries are not always repeated. “Also recorded” adds a separate entry of the source. Where two headings read alike, the source gives them in different places.

How the values were obtained:
[1] = phase solubility studies of β-lap with cyclodextrins; format: physicochemical
Procedure: Solubility studies were performed by adding excess amount of β-lap to a series of PBS buffer that contain different concentrations of each CD molecule ranging from zero to its solubility limit (see Table 1 for the solubility limit of each CD molecule). A schematic diagram of the intermolecular interactions and their effect on solubility is provided as FIG. 1. The suspensions were stirred at 25° C. until dissolution equilibrium was reached. […] Phase solubility diagram for each CD was obtained by plotting the β-lap solubility at dissolution equilibrium as a function of the CD concentration.

[2] = test system: athymic nude mice; assay: maximum tolerated dose in athymic nude mice; format: in vivo, mouse
Procedure: MDA_MB-468 NQO1+ Tumor (468) cells were injected into the right and left flanks of 18-20 gm athymic nude mice and tumors of 20-50 mm^3 volume were allowed to grow in 20-30 days. When tumor volumes reached 20-30 mm^3 (at day 26), mice were then treated (by intraperitoneal injection) every other day with the indicated doses (in mg/kg) of β-lap (55-70 mg/kg were tested). The maximum tolerated dose of β-lap in athymic nude mice was determined to be […]). Ten (10) β-lap doses were given every other day, and data are shown for only one cycle of β-lap treatment. Multiple cycles of treatments are now being tested, as are various dose regimen and scheduling protocols.
β-lap bioavailability and antitumor activity. To show efficacy of β-lap in vivo, a systemic delivery system was developed for this water-insoluble drug. β-Lap complexes with β-hydroxypropyl-β-cyclodextrin (HP-β-CD) that dissolves the drug and makes it bioavailable. The toxicity of HP-β-CD.β-lap in 18-20 gm athymic nude mice was examined and the maximum tolerated dose (MTD) was ˜75 mg/kg. […] We tested the effects of β-lap administered i.p. in athymic nude mice bearing NQO1^+ MDA-MB-468 (468) human breast cancer xenografts.

[3] = test system: MDA-MB-468 NQO1+ human breast cancer xenografts; assay: antitumor activity against xenografts; format: in vivo, athymic nude mice; conditions: for antitumor activity: 55-70 mg/kg i.p. every other day
Procedure: Athymic nude mice bearing […] tumors were treated with the indicated mg/mk doses of β-lap i.p. every other day, beginning at day 26.
When tumor volumes reached 20-30 mm^3 (at day 26), mice were then treated (by intraperitoneal injection) every other day with the indicated doses (in mg/kg) of β-lap (55-70 mg/kg were tested). […] Multiple cycles of treatments are now being tested, as are various dose regimen and scheduling protocols.

[4] = test system: A549 NSCLC cells; assay: survival and apoptosis (PARP cleavage) of NSCLC cells; format: cell-based, human; conditions: 8 μM β-lap, 4 h
Excerpt: NQO1-dependent apoptosis of A549 or CC-10 NSCLC cells by β-lap.

[5] = test system: CC-10 tumor cell lines; assay: lethality and apoptosis of NSCLC cells; format: cell-based, mouse
Excerpt: (§1) PARP cleavage to a 60 kDa fragment and specific p53 proteolysis are diagnostic for β-lap-induced μ-calpain-mediated apoptosis.

[6] = test system: L1C2 cells; format: cell-based; conditions: 4 μM, 4 h
Excerpt: as §1

[7] = test system: Lewis lung carcinoma (LLC); format: cell-based; conditions: 4 μM, 4 h
Excerpt: as §1

[8] = test system: LNCaP; assay: TUNEL apoptosis assay; format: cell-based, human; conditions: for Apoptosis (%) After Drug Treatment: 10 μM, 4h
[9] = test system: DU-145; assay: TUNEL apoptosis assay; format: cell-based, human; conditions: 10 μM, 4h, TUNEL 48h
[10] = test system: PC-3; assay: TUNEL apoptosis assay; format: cell-based, human; conditions: 10 μM, 4h, TUNEL 48h
[11] = test system: PC-3 cells; assay: survival / lethality of CaP cells; format: cell-based, human; conditions: PC-3, absence of IR
[12] = test system: LNCaP cells; assay: survival / lethality of CaP cells; format: cell-based, human; conditions: LNCaP (lack NQO1)
[13] = test system: NQO1-containing LNCaP clones; assay: colony forming ability assays; format: cell-based, human; conditions: 4-h pulses
Procedure: FIG. 14. […] Colony forming ability assays (CFAs) were performed three times, each in triplicate.
LNCaP cells were transfected with either pcDNA3 empty vector or pcDNA3 containing full-length NQO1 cDNA.

[14] = test system: NQO1+ LNCaP NQCl2 cells; assay: radiosensitization, clonogenic survival; format: cell-based, human; conditions: β-lap given 4 h post-IR
Procedure: (§2) FIG. 15. […] Changes in colony forming ability. In A, pcDNA3-vector alone cells were tested. In B, same as A, except that NQO1^+ LNCaP cells were used.
(§3) To answer the question of whether NQO1 levels must be induced for β-lap radiosensitization, we examined NQO1^+ LNCaP NQC12 v. NQO1^− LNCaP-pcDNA3 vector alone cells for differences in radiosensitization by various concentrations of β-lap, given 4 h post-IR (FIG. 15).

[15] = test system: NQO1− LNCaP cells; assay: radiosensitization, clonogenic survival; format: cell-based, human
Procedure: as §2, §3

[16] = test system: human cancer cells; conditions: variety of human cancer cells; read-out: antitumor activity (IC50); cited from earlier work
[17] = test system: C57/blk6 mice; conditions: cited from earlier work

## CC1(C)CCC2=C(O1)c1ccccc1C(=O)C2=O [β-lap, β-Lapachone]
[1]
  increase of β-lap solubility in HPβ-CD over that in β-CD vehicle: 24 fold
[1]; HPβ-CD solution, PBS, 25° C.
  maximal solubility of β-lap in HPβ-CD solution: 66.0 mM and 16.0 mg/ml
[1]; water
  water solubility of β-lap: 0.16 mM and 0.04 mg/ml
[1]; β-CD solution, PBS, 25° C.
  maximal solubility of β-lap in β-CD solution: 2.8 mM and 0.68 mg/ml
[2]; 18-20 gm athymic nude mice
  maximum tolerated dose (MTD): 80 mg/kg
[2]; HP-β-CD complex MTD vs lipiodol LD50
  greater bioavailability in vivo than in previous studies: ~3 fold
[3]
  antitumor activity: significant antitumor responses; also recorded: Significant antitumor activity
[3]; listed as β-Lap
  antitumor activity: significant antitumor activity
[3]; 65 and 70 mg/kg i.p. every other day, 10 doses
  antitumor responses: Significant antitumor responses
[4]
  lethality and apoptosis: caused lethality and apoptosis
[5]
  lethality and apoptosis: caused lethality and apoptosis
[5]; 4 μM, 4 h
  sensitivity to β-lap: extremely sensitive
[6]
  sensitivity to β-lap: extremely sensitive
[7]
  sensitivity to β-lap: extremely sensitive
[8]; LNCaP + DC (50 μM dicoumarol), TUNEL 48h
  Apoptosis (%) After Drug Treatment: 28%
[8]; LNCaP + DVED, TUNEL 48h
  Apoptosis (%) After Drug Treatment: 24%
[8]; LNCaP, TUNEL 48h post-treatment
  Apoptosis (%) After Drug Treatment: 28%
[8]; β-lap-treated LNCaP
  less apoptosis than DU-145 or PC-3 cells: 3 fold
[9]; DU-145 + DC (50 μM dicoumarol)
  Apoptosis (%) After Drug Treatment: 0.12%
[9]; DU-145 + DVED
  Apoptosis (%) After Drug Treatment: 76%
[9]; DU-145
  Apoptosis (%) After Drug Treatment: 71%
[10]; PC-3 + DC (50 μM dicoumarol)
  Apoptosis (%) After Drug Treatment: 0.04%
[10]; PC-3 + DVED
  Apoptosis (%) After Drug Treatment: 91%
[10]; PC-3
  Apoptosis (%) After Drug Treatment: 82%
[11]
  sensitivity to β-lap: sensitive
[12]
  sensitivity to β-lap: resistant
[13]
  sensitivity compared to NQO1-deficient LN-pcDNA3 vector alone cells: significantly more sensitive
[14]
  radiosensitization: radiosensitized
[15]
  radiosensitization: not sensitized
[16]
  IC50: 1 to 10 µM
[17]; Cremophor as vehicle
  LD50: > 150 mg/kg
[17]; lipiodol, C57/blk6 mice
  LD50: > 150 mg/kg
